Test results as given in paper PMC7277860, “Viridistratins A−C, Antimicrobial and Cytotoxic Benzo[j]fluoranthenes from Stromata of Annulohypoxylon viridistratum (Hypoxylaceae, Ascomycota)” (Biomolecules, 2020).
Converted amounts (≈) assume the structure as drawn.

Experiments:
Test in all cases: MIC serial dilution assay
Format in all cases: cell-based
Bacillus subtilis = Bacillus subtilis DSM10; overnight, 30 °C; reference oxytetracycline 1 mg/mL; read-out: Minimum Inhibitory Concentration (MIC)
Procedure: (§1) Compounds 1, 2, 4 and 5 were dissolved in MeOH (1 mg/mL) for the antimicrobial activity assay, while compound 3 was dissolved in MeOH: DMSO 9+1 (1 mg/mL). The solvents were also used as negative controls.
(§2) Minimum inhibitory concentrations (MIC) were determined in a serial dilution assay, as described previously; a detailed protocol can be found in the Supporting Information. The compounds (1 mg/mL) were diluted to a range of 66.7 to 0.52 µg/mL and incubated with the test organisms overnight. Inhibition of growth was visually evaluated the next day: the MIC is defined as the lowest concentration of the test compound where no growth of the test organism was observed. Various test organisms of fungal and bacterial origin were tested to cover a broad range of microorganisms. This selection is also being used as a standard test panel in our attempts to discover new anti-infectives, as it represents a broad spectrum of pathogens of clinical interest, as well as sensitive indicator strains (bacteria: Bacillus subtilis, Staphylococcus aureus, Micrococcus luteus, Chromobacterium violaceum, Escherichia coli and Pseudomonas aeruginosa; mycobacteria: Mycolicibacterium smegmatis and fungi: Candida albicans, Schizosaccharomyces pombe, Mucor hiemalis, Pichia anomala and Rhodotorula glutinis).
(§3) Protocol: Antimicrobial Activi ty Assay
(§4) The assay was conducted as a minimum inhi bitory concentration (MIC) assay in 96-well ro und-bottom mi crotiter pl ate s usi ng the p ar ameter s su mm ari zed i n T a bl e S 1 and as already described i n [S1].
(§5) Stocks of the test organi sms were generated by growing the organisms o ver ni ght i n 50 mL shaki ng fl asks fi ll ed wi th 25 mL of the growth medi um at 140 rpm (for media and temperatures see Table S1). If the organisms were well grown the ne xt day, which was checked by occurrence of an optical density (OD)>30 of the suspension (OD600 nm for bacteria, OD548 nm for fungi and M. smegma tis) , aliquots of these were stored i n 1.5 mL reaction tube s in a freezer at −80 °C for up to 12 mo nths . Upon use, aliquots were unth awed and the OD of the suspension measured and adjusted by diluting with the respective growth medi um. OD600 nm w as adj usted to 0.01 and OD548 nm to 0.1.
(§6) Subse que ntly, 150 µL o f the adjusted suspensions were added to all wells of a 96-wel l microtiter pl ate (one test organi sm per plate). In row A, additional 130 µL of suspensions plus 20 µL of the test compounds (1 mg/mL) and the controls (one compound/column) were added. MeOH as well as MeOH:DMSO 9+1 were used as negative controls, while different positive controls (refer ences) were used for the test organisms (see Tabl e S1). Then, starti ng from row A, 150 µ L of the suspension were transferred to the next row, the contents thoroughly mixed, and 150 µ L transferred to the following row.
(§7) The remaining 150 µ L after row H were discarded. […]
(§8) compounds, ranging from 66.7 µg/mL i n row A to 0.52 µg/mL i n row H.
(§9) The microtiter plates were then incubated overnight o n a microplate shaker at 800 rpm at 30 or 37 °C (see Table S1) and were visually evaluated the next day. The MIC is defined as the lowest concentration were no growth of the test organism was o bserved. A lower MIC thus corresponds to a higher antimicrobial activity of the test compound.
(§10) Table S1: MIC assay ex per i men t parameters test organism strain No. growth incubation positive control (reference) […]
Bacillus subtilis DSM10 MHB 1 30 oxytetr acyclin 1.0 mg/mL […]
(§11) Rhodotorula glutinis DSM10134 MYC 3 30 nyst ati n 1.0 mg/mL
(§12) 1 MHB: Müller-Hinton Broth (SN X927.1, Ca r l Roth GmbH, Karlsruhe, Germany) 2 7H9+ADC: Middlebrook 7H9 Broth Base + Middlebrook ADC Growth Supplement (SN M0678+M0553, Merck, Darmstadt, Germany)
(§13) 3 MYC: 1 % w/v, bacto peptone, 1% w/v yeast extract, 2 % w /v glycerol, pH 6.3 [S1] Helaly, S.E.; Ashrafi, S.; Teponno, R.B.; Bernecker, S.; Dababat, A.A.; Maier, W.; Stadler, M.
(§14) Nematicidal Cyclic Lipodepsipeptides and a Xanthocillin Derivative from a Phaeosphariaceous […]

Staphylococcus aureus = Staphylococcus aureus DSM346; overnight, 30 °C; reference oxytetracycline 0.1 mg/mL; read-out: Minimum Inhibitory Concentration (MIC)
Procedure: as §1, §2, §3, §4, §5, §6, §7, §8, §9, §10
Staphylococcus aureus DSM346 MHB 1 30 oxytetr acyclin 0.1 mg/mL […]
as §11, §12, §13, §14

[1] = system: Chromobacterium violaceum; conditions: Chromobacterium violaceum DSM30191; overnight, 30 °C; reference oxytetracycline 0.1 mg/mL; read-out: Minimum Inhibitory Concentration (MIC)
Procedure: as §1, §2, §3, §4, §5, §6, §7, §8, §9, §10
Chromobacterium DSM30191 MHB 1 30 oxytetr acyclin 0.1 mg/mL […]
as §11, §12, §13, §14

Escherichia coli = Escherichia coli DSM1116; overnight, 37 °C; reference oxytetracycline 0.1 mg/mL; read-out: Minimum Inhibitory Concentration (MIC)
Procedure: as §1, §2, §3, §4, §5, §6, §7, §8, §9, §10
Escherichia coli DSM1116 MHB 1 37 oxytetr acyclin 0.1 mg/mL […]
as §11, §12, §13, §14

Pseudomonas aeruginosa = Pseudomonas aeruginosa PA14; overnight, 37 °C; reference gentamicin 0.1 mg/mL; read-out: Minimum Inhibitory Concentration (MIC)
Procedure: as §1, §2, §3, §4, §5, §6, §7, §8, §9, §10
Pseudomonas a erugi nosa PA14 MHB 1 37 gent amici n 0.1 mg/mL […]
as §11, §12, §13, §14

[2] = system: Mycolicibacterium smegmatis; conditions: Mycolicibacterium smegmatis ATCC700084; overnight, 37 °C; reference kanamycin 0.1 mg/mL; read-out: Minimum Inhibitory Concentration (MIC)
Procedure: as §1, §2, §3, §4, §5, §6, §7, §8, §9, §10, §11, §12, §13, §14

Rhodotorula glutinis = conditions: Rhodotorula glutinis, DSM10134, Rhodotorula glutinis DSM10134; overnight, 30 °C; reference nystatin 1 mg/mL; read-out: Minimum Inhibitory Concentration (MIC)
Procedure: as §1, §2, §3, §4, §5, §6, §7, §8, §9, §10, §11, §12, §13, §14

[3] = system: Schizosaccharomyces pombe; conditions: Schizosaccharomyces pombe DSM70572; overnight, 30 °C; reference nystatin 1 mg/mL; read-out: Minimum Inhibitory Concentration (MIC)
Procedure: as §1, §2, §3, §4, §5, §6, §7, §8, §9, §10
Schizosaccharomyces DSM70572 MYC 3 30 nyst ati n 1.0 mg/mL […]
as §11, §12, §13, §14

Mucor hiemalis = Mucor hiemalis DSM2656; overnight, 30 °C; reference nystatin 1 mg/mL; read-out: Minimum Inhibitory Concentration (MIC)
Procedure: as §1, §2, §3, §4, §5, §6, §7, §8, §9, §10
Mucor hiemalis DSM2656 MYC 3 30 nyst ati n 1.0 mg/mL […]
as §11, §12, §13, §14

Pichia anomala = conditions: Hansenula anomala; Pichia anomala DSM6766; overnight, 30 °C; reference nystatin 1 mg/mL; read-out: Minimum Inhibitory Concentration (MIC)
Procedure: as §1, §2, §3, §4, §5, §6, §7, §8, §9, §10
Pichia anomala DSM6766 MYC 3 30 nyst ati n 1.0 mg/mL
as §11, §12, §13, §14

SMILES | MIC (Bacillus subtilis) [µg/mL] | MIC (Staphylococcus aureus) [µg/mL] | MIC [1] [µg/mL] | MIC (Escherichia coli) [µg/mL] | MIC (Pseudomonas aeruginosa) [µg/mL] | MIC [2] [µg/mL] | MIC (Rhodotorula glutinis) [µg/mL] | MIC [3] [µg/mL] | MIC (Mucor hiemalis) [µg/mL] | MIC (Pichia anomala) [µg/mL]
COc1cccc2c3c(ccc12)-c1ccc(O)c2c(OC)ccc-3c12 [Compound 3, viridistratin C] | > 66.7 | > 66.7 | > 66.7 | > 66.7 | > 66.7 | > 66.7 | > 66.7 | > 66.7 | > 66.7 | > 66.7
O=C1C[C@H]2C(=C3CCC(=O)c4c(O)ccc2c43)c2cccc(O)c21 [Compound 4, truncatone A] | > 66.7 | > 66.7 | > 66.7 | > 66.7 | > 66.7 | > 66.7 | > 66.7 | > 66.7 | > 66.7 | > 66.7
O=C1CCC(=O)c2c1c(O)cc1c2-c2ccc(O)c3c(O)ccc-1c23 [Compound 5, truncatone C] | 66.7 (≈ 201 µM) | > 66.7 | > 66.7 | > 66.7 | > 66.7 | > 66.7 |  | > 66.7 | 66.7 (≈ 201 µM) | > 66.7

The next compounds have a lower MIC (Bacillus subtilis) than those just listed; values first:

MIC (Bacillus subtilis) [µg/mL] | MIC (Staphylococcus aureus) [µg/mL] | MIC [1] [µg/mL] | MIC (Escherichia coli) [µg/mL] | MIC (Pseudomonas aeruginosa) [µg/mL] | MIC [2] [µg/mL] | MIC (Rhodotorula glutinis) [µg/mL] | MIC [3] [µg/mL] | MIC (Mucor hiemalis) [µg/mL] | MIC (Pichia anomala) [µg/mL] | SMILES
33.3 (≈ 111 µM) | 66.7 (≈ 222 µM) | 66.7 (≈ 222 µM) | > 66.7 | > 66.7 | > 66.7 | 33.3 (≈ 111 µM) | 66.7 (≈ 222 µM) | 66.7 (≈ 222 µM) | 66.7 (≈ 222 µM) | Oc1cccc2c3c(ccc12)-c1ccc(O)c2c(O)ccc-3c12 [Compound 1, viridistratin A]
16.7 (≈ 53.1 µM) | 16.7 (≈ 53.1 µM) | 66.7 (≈ 212 µM) | > 66.7 | > 66.7 | 33.3 (≈ 106 µM) | 33.3 (≈ 106 µM) | 33.3 (≈ 106 µM) | 4.2 (≈ 13.4 µM) | 33.3 (≈ 106 µM) | COc1cccc2c3c(ccc12)-c1ccc(O)c2c(O)ccc-3c12 [Compound 2, viridistratin B]
